Laboratory results as given in US6479435B1, “Diaryl ethers and processes for their preparation and herbicidal and desiccant compositions containing them” (ISK Americas Incorporated, priority 1997, dated 2002).

Experiments:
Type in all cases: in vivo
[1] = tested on: Johnsongrass (Sorghum halepense, SORHA); test: Pre-emerge greenhouse herbicide test, phytotoxicity rating; settings: 14 days after application, rating scale 0-100
Procedure, shortened: (§1)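 Visual 0–100 injury rating (100 = all plants dead) taken 14 days after treatment. Rates of 125–1000 g ai/ha in acetone, 187 l/ha, were sprayed onto soil one day post-sowing; pots were surface-watered to incorporate, then bottom-watered.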

[2] = tested on: barnyardgrass (Echinochloa crusgalli, ECHCG); test: as above; settings: 14 days after application, rating scale 0-100
Procedure, shortened: as §1

[3] = tested on: common ragweed (Ambrosia artemisiifolia L., AMBEL); test: as above; settings: 14 days after application, rating scale 0-100
Procedure, shortened: as §1

[4] = tested on: green foxtail (Setaria viridis, SETVI); test: as above; settings: 14 days after application, rating scale 0-100
Procedure, shortened: as §1

[5] = tested on: ivyleaf morningglory (Ipomoea hederacea, IPOHE); test: as above; settings: 14 days after application, rating scale 0-100
Procedure, shortened: as §1

[6] = tested on: lambsquarters (Chenopodium album, CHEAL); test: as above; settings: 14 days after application, rating scale 0-100
Procedure, shortened: as §1

[7] = tested on: large crabgrass (Digitaria sanguinalis, DIGSA); test: as above; settings: 14 days after application, rating scale 0-100
Procedure, shortened: as §1

[8] = tested on: redroot pigweed (Amaranthus retroflexus, AMARE); test: as above; settings: 14 days after application, rating scale 0-100
Procedure, shortened: as §1

[9] = tested on: sicklepod (Cassia obtusifolia, CASOB); test: as above; settings: 14 days after application, rating scale 0-100
Procedure, shortened: as §1

[10] = tested on: velvetleaf (Abutilon theophrasti, ABUTH); test: as above; settings: 14 days after application, rating scale 0-100
Procedure, shortened: as §1

[11] = tested on: field corn (Zea mays L., var. Dekalb 535, CORN); test: Pre-emerge greenhouse test, crop damage rating; settings: 14 days after application, rating scale 0-100
Procedure, shortened: as §1

[12] = tested on: upland rice (Oryza sp., var.Tebonnet, RICE); test: Pre-emerge greenhouse test, crop damage rating; settings: 14 days after application, rating scale 0-100
Procedure, shortened: as §1

[13] = tested on: soybean (Glycine max L., var. Pella 86, SOY); test: Pre-emerge greenhouse test, crop damage rating; settings: 14 days after application, rating scale 0-100
Procedure, shortened: as §1

[14] = tested on: common ragweed (Ambrosia artemisiifolia L., AMBEL); test: Post-emerge greenhouse herbicide test, phytotoxicity rating; settings: 14 days after application
Procedure, shortened: (§2)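 Scores use a 0 (no damage) to 100 (complete kill) scale, taken 14 days after a foliar spray. Acetone solutions with 0.25% v/v non-ionic surfactant were applied by track sprayer at 187 l/ha and 63-1000 g ai/ha to bottom-watered 2-3 leaf plants.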

[15] = tested on: Johnsongrass (Sorghum halepense, SORHA); test: as above; settings: 14 days after application
Procedure, shortened: as §2

[16] = tested on: barnyardgrass (Echinochloa crusgalli, ECHCG); test: as above; settings: 14 days after application
Procedure, shortened: as §2

[17] = tested on: green foxtail (Setaria viridis, SETVI); test: as above; settings: 14 days after application
Procedure, shortened: as §2

[18] = tested on: ivyleaf morningglory (Ipomoea hederacea, IPOHE); test: as above; settings: 14 days after application
Procedure, shortened: as §2

[19] = tested on: lambsquarters (Chenopodium album, CHEAL); test: as above; settings: 14 days after application
Procedure, shortened: as §2

[20] = tested on: large crabgrass (Digitaria sanguinalis, DIGSA); test: as above; settings: 14 days after application
Procedure, shortened: as §2

[21] = tested on: redroot pigweed (Amaranthus retroflexus, AMARE); test: as above; settings: 14 days after application
Procedure, shortened: as §2

[22] = tested on: sicklepod (Cassia obtusifolia, CASOB); test: as above; settings: 14 days after application
Procedure, shortened: as §2

[23] = tested on: velvetleaf (Abutilon theophrasti, ABUTH); test: as above; settings: 14 days after application
Procedure, shortened: as §2

[24] = tested on: field corn (Zea mays L., var. Dekalb 535, CORN); test: Post-emerge greenhouse test, crop damage rating; settings: 14 days after application
Procedure, shortened: as §2

[25] = tested on: upland rice (Oryza sp., var.Tebonnet, RICE); test: Post-emerge greenhouse test, crop damage rating; settings: 14 days after application
Procedure, shortened: as §2

[26] = tested on: soybean (Glycine max L., var. Pella 86, SOY); test: Post-emerge greenhouse test, crop damage rating; settings: 14 days after application
Procedure, shortened: as §2

In the case of `O=c1sc(=Nc2cc(Oc3ncccn3)c(Cl)cc2F)n2n1CCCC2` [Compound 7-2], the “phytotoxicity rating SORHA” value ([1]; 125 g ai/ha) was 95, the “phytotoxicity rating SORHA” value ([1]; 500 g ai/ha) was 100 and the “phytotoxicity rating ECHCG” value ([2]; 125 g ai/ha) was 99. The “phytotoxicity rating ECHCG” value ([2]; 500 g ai/ha) was 100, the “phytotoxicity rating AMBEL” value ([3]; 125 g ai/ha) was 100 and the “phytotoxicity rating AMBEL” value ([3]; 500 g ai/ha) was 100. For the same compound, the “phytotoxicity rating SETVI” value ([4]; 125 g ai/ha) was 100, the “phytotoxicity rating SETVI” value ([4]; 500 g ai/ha) was 100 and the “phytotoxicity rating IPOHE” value ([5]; 125 g ai/ha) was 100. The “phytotoxicity rating IPOHE” value ([5]; 500 g ai/ha) was 100, the “phytotoxicity rating CHEAL” value ([6]; 125 g ai/ha) was 100 and the “phytotoxicity rating CHEAL” value ([6]; 500 g ai/ha) was 100. The “phytotoxicity rating DIGSA” value ([7]; 125 g ai/ha) was 100, the “phytotoxicity rating DIGSA” value ([7]; 500 g ai/ha) was 100 and the “phytotoxicity rating AMARE” value ([8]; 125 g ai/ha) was 100. For the same compound, the “phytotoxicity rating AMARE” value ([8]; 500 g ai/ha) was 100, the “phytotoxicity rating CASOB” value ([9]; 125 g ai/ha) was 60 and the “phytotoxicity rating CASOB” value ([9]; 500 g ai/ha) was 100. The “phytotoxicity rating ABUTH” value ([10]; 125 g ai/ha) was 100, the “phytotoxicity rating ABUTH” value ([10]; 500 g ai/ha) was 100 and the “crop damage rating CORN” value ([11]; 125 g ai/ha) was 45. The “crop damage rating CORN” value ([11]; 500 g ai/ha) was 70, the “crop damage rating RICE” value ([12]; 125 g ai/ha) was 90 and the “crop damage rating RICE” value ([12]; 500 g ai/ha) was 100. The “crop damage rating SOY” value ([13]; 125 g ai/ha) was 0, the “crop damage rating SOY” value ([13]; 500 g ai/ha) was 80 and the “AMBEL phytotoxicity rating (0-100)” value ([14]; 63 g al/ha) was 100. For the same compound, the “AMBEL phytotoxicity rating (0-100)” value ([14]; 500 g al/ha) was 100, the “SORHA phytotoxicity rating (0-100)” value ([15]; 63 g al/ha) was 60 and the “SORHA phytotoxicity rating (0-100)” value ([15]; 500 g al/ha) was 100. The “ECHCG phytotoxicity rating (0-100)” value ([16]; 63 g al/ha) was 40, the “ECHCG phytotoxicity rating (0-100)” value ([16]; 500 g al/ha) was 95 and the “SETVI phytotoxicity rating (0-100)” value ([17]; 63 g al/ha) was 90. For the same compound, the “SETVI phytotoxicity rating (0-100)” value ([17]; 500 g al/ha) was 100, the “IPOHE phytotoxicity rating (0-100)” value ([18]; 63 g al/ha) was 100 and the “IPOHE phytotoxicity rating (0-100)” value ([18]; 500 g al/ha) was 100. For the same compound, the “CHEAL phytotoxicity rating (0-100)” value ([19]; 63 g al/ha) was 100, the “CHEAL phytotoxicity rating (0-100)” value ([19]; 500 g al/ha) was 100 and the “DIGSA phytotoxicity rating (0-100)” value ([20]; 63 g al/ha) was 30. The “DIGSA phytotoxicity rating (0-100)” value ([20]; 500 g al/ha) was 85, the “AMARE phytotoxicity rating (0-100)” value ([21]; 63 g al/ha) was 100 and the “AMARE phytotoxicity rating (0-100)” value ([21]; 500 g al/ha) was 100. The “CASOB phytotoxicity rating (0-100)” value ([22]; 63 g al/ha) was 100, the “CASOB phytotoxicity rating (0-100)” value ([22]; 500 g al/ha) was 100 and the “ABUTH phytotoxicity rating (0-100)” value ([23]; 63 g al/ha) was 100. The “ABUTH phytotoxicity rating (0-100)” value ([23]; 500 g al/ha) was 100, the “CORN crop damage rating (0-100)” value ([24]; 63 g al/ha) was 35 and the “CORN crop damage rating (0-100)” value ([24]; 500 g al/ha) was 90. For the same compound, the “RICE crop damage rating (0-100)” value ([25]; 63 g al/ha) was 80, the “RICE crop damage rating (0-100)” value ([25]; 500 g al/ha) was 95 and the “SOY crop damage rating (0-100)” value ([26]; 63 g al/ha) was 95. For the same compound, the “SOY crop damage rating (0-100)” value ([26]; 500 g al/ha) was 100.
